Measurements published in US9193687B2 (priority 2007, dated 2015).
Values joined by “and” are separate entries in the source; they are usually repeats but may differ in a detail not shown here. Equal values may be shown once. Where a name gives a salt, the structure may show the parent alone. Read-outs that look alike come from different tables or passages of the source.

Experiments:
[1] = test system: biosynthesis of DNA, RNA and protein in MX-1 cells; assay: Inhibition of biosynthesis of DNA, RNA and protein (tritiated tracer incorporation); format: cell-based, human; settings: for inhibition at 10 µM: Homo sapiens, MX1, read-out: Protein synthesis inhibition
Description: [^3H]Thymidine (1 uCi), [^3H]adenosine (1 μCi) and [^3H]leucine (2 μCi) were used as the tracers for incorporation into DNA, RNA and protein, respectively. […] Incubation was terminated at each time points as indicated.

[2] = test system: Human mammary carcinoma (MX-1) tumor cells; assay: In vitro cytotoxicity, SRB assay, 72-hr incubation; settings: read-out: Cytotoxicity IC50, MX-1
[3] = test system: CCRF-CEM/Taxol; assay: In vitro cytotoxicity, XTT assay, taxol-resistant subline; settings: read-out: Cytotoxicity IC50, CCRF-CEM/Taxol
[4] = test system: CCRF-CEM human lymphoblastic leukemia cells; assay: cells; settings: 72 h, read-out: Cytotoxicity IC50, CCRF-CEM
[5] = test system: Human colon carcinoma HCT-116 cells; assay: cells; settings: HCT-116, 72 h, read-out: Cytotoxicity IC50, HCT-116
[6] = test system: human mammary carcinoma MX-1 xenograft; assay: Antitumor therapeutic effect against MX-1 xenograft in nude mice; format: in vivo; settings: i.v. injection; for Therapeutic effect: complete tumor remission (CR), mice with CR/total and day: treatment from Day 8, dose and schedule per compound as in Table 3 (30-150 mg/kg); for Maximal body-weight loss (%) / Therapeutic effect: tumor relapse: dose and schedule per compound as in Table 3
Description: (§1) Athymic nude mice bearing the nu/nu gene were obtained from NCI, Frederick, Md. and used for all human tumor xenografts. Male nude mice 6 weeks or older weighing 20-24 g or more were used. Compounds were administered via the tail vein for i.v. injection or infusion as described previously.^64 A typical formulation for chemotherapeutic studies for each drug was dissolved in DSMO to make a 25 mg/ml fresh solution, 0.4 ml of this solution was mixed with 0.3 ml of Tween 80, plus 1.3 ml to make 2 ml of 5 mg/ml solution. Bolus injection volume was 0.1-0.2 ml per mouse. Tumor volume was assessed by measuring length×width×height (or width) by using a caliper. For tumor-bearing nude mice during the course of the experiment, the body weight refers to total weight minus the weight of the tumor. All animal studies were conducted in accordance with the guidelines for the National Institute of Health Guide for the Care and Use of Animals and the protocol approved by the Institutional Animal Care and Use Committee.
The therapeutic effects of a drug against human tumor xenografts in nude mice, under the optimal therapeutic conditions but without any lethality due to drug toxicity, the following degrees of therapeutic effects are defined and calculated by the following formula: […]
where • T0 is the initial tumor size (in mm^3) at beginning of drug treatment; • Tc is tumor size of untreated control group on a given date; and • Tx is tumor size of the drug treated group on a given date.
[formula] • Tumor disappearance (complete remission or CR) is defined by the effect where • [Tx=0] for a period of time (in days) for a proportion of animals (NCR/N), where • N is the total number of animals in the group, and NCR is the number of mice in the group that achieved CR. • Tumor relapse is quantitatively calculated by • [The Day tumor relapsed (Drelp)—The Day CR achieved (DCR)] (Eq. 3) for a proportion of animals (Nrelp/N) where N is the total number of animals in the group, and Nrelp is the number of the mice in the group that relapsed. • The log cell kill (LCK) of the tumor tissue after a given chemotherapy that reached CR is estimated by: LCK=log [2^(Tumor remission in days/Tumor doubling time in days)] (Eq. 4)
(§2) Athymic nude mice bearing the nu/nu gene were used for human breast tumor MX-1 xenograft (FIGS. 3 and 4) and human brain glioma U87 GM xenograft (FIG. 5). Nude mice were obtained from National Cancer Institute, Frederick, Md. Male mice 6 weeks old or older weighing 22 g or more were used for experiments with subcutaneous tumor inoculation as described previously.^67 Drug was administrated via the tail vein by iv injection. Tumor volumes were assessed by measuring length×width×height (or width) by using caliper. Vehicle used was 20 μL DMSO in 180 μL saline. All animal studies were conducted in accordance with the guidelines of the U.S. National Institutes of Health Guide for the Care and Use of Animals and the protocol approved by the Institutional Animal Care and Use Committee.

[7] = test system: Human colon carcinoma HCT-116 cells; settings: read-out: Cytotoxicity IC50, HCT-116
[8] = test system: CCRF-CEM human lymphoblastic leukemia cells; settings: read-out: Cytotoxicity IC50, CCRF-CEM
[9] = test system: prostate cancer (PC3); assay: cells; settings: read-out: Cytotoxicity IC50, PC3; Table 2
[10] = test system: lung cancer H1299; assay: cells; settings: read-out: Cytotoxicity IC50, H1299; Table 2
[11] = test system: lung cancer H460; assay: cells; settings: read-out: Cytotoxicity IC50, H460; Table 2
[12] = Half-life in rat plasma
[13] = Half-life in intravenous injection vehicle; settings: intravenous injection vehicle (DMSO/Tween 80/saline)
[14] = test system: human glioma U87 GM s.c. xenograft; assay: Therapeutic effect against U87 glioma s.c. xenograft in nude mice; format: in vivo
Description: as §1
as §2, with “Committee. […]” for “Committee.”

Cc1cc(NC(=O)Nc2ccc(N(CCCl)CCCl)cc2)c2ccccc2n1 [BO-1038, 1-{4-[bis(2-chloroethyl)amino]phenyl}-3-(2-methylquinolin-4-yl)urea]
inhibition at 10 µM [1]: 40 to 80% | IC50 ([2]; Homo sapiens, 72 h): 340 nM | IC50 ([3]; Homo sapiens, CCRF-CEM, 72 h): 430 nM | IC50 [4]: 190 nM | IC50 [5]: 1420 nM | Therapeutic effect: complete tumor remission (CR), mice with CR/total and day [6]: achieved complete tumor remission and 3/3 CR on D16, 16, 16 | Maximal body-weight loss (%) [6]: 4% | Therapeutic effect: tumor relapse [6]: No relapse on D70

CN(C)CCC(=O)Nc1cccc(NC(=O)Nc2ccc(N(CCCl)CCCl)cc2)c1 (as salt: HCl) [BO-2091, N-(3-(3-(4-(bis(2-chloroethyl)amino)-phenyl)ureido)phenyl)-3-(dimethylamino)-propanamide]
melting point: 88 to 90 °C

Cc1cccc2c(Nc3cc(COC(=O)Nc4ccc(N(CCCl)CCCl)cc4)cc(NC(=O)OCC(C)C)c3)c3ccccc3nc12 [BO-1245]
IC50 ([7]; Table 1, SRB, 72-hr incubation): 2400 nM | IC50 ([2]; Table 1, SRB, 72-hr incubation): 5970 nM | IC50 ([3]; Table 1, XTT, 72-hr incubation): 3360 nM

N.N.[Cl][Pt][Cl] [Cisplatin, reference compound]
IC50 ([7]; Table 2): 12700 nM | IC50 ([8]; Table 2): 3540 nM | IC50 [9]: 9960 nM | IC50 [10]: 13600 nM | IC50 [11]: 18400 nM

Cc1ccc(Nc2c3ccccc3nc3ccccc23)cc1NC(=O)Nc1ccc(N(CCCl)CCCl)cc1 [BO-1150]
IC50 ([7]; Table 1, SRB, 72-hr incubation): 260 nM | IC50 ([8]; Table 1, XTT, 72-hr incubation): 20 nM | IC50 ([2]; Table 1, SRB, 72-hr incubation): 580 nM | IC50 ([3]; Table 1, XTT, 72-hr incubation): 30 nM

Cc1ccc(Nc2c3ccccc3nc3c(C)cccc23)cc1NC(=O)Nc1ccc(N(CCCl)CCCl)cc1 [BO-1051]
Delay in reaching maximal effect on DNA and RNA biosynthesis ([1]; 10 μM): about 1 hr | inhibition at 10 µM [1]: < 20% | half-life [12]: 2.25 days | IC50 ([3]; Homo sapiens, CCRF-CEM, 72 h): 90 nM | IC50 [4]: 80 nM | half-life [13]: ~45 days | IC50 [5]: 440 nM | Therapeutic effect: complete tumor remission (CR), mice with CR/total and day [6]: achieved complete tumor remission and 3/3 CR on D16, 16, 18 | Maximal body-weight loss (%) [6]: 11% | Therapeutic effect: tumor relapse [6]: No relapse on D70 | Tumor size as % of original tumor size ([14]; 100 mg/kg, Q2D×5, n=3, one cycle, 10 and 12 days after last dose): 18% | Tumor-growth suppression ([14]; BO-1049 150 mg/kg, BO-1051 100 mg/kg, BO-1055 30 mg/kg, Q2D×5, i.v.-injection): complete tumor-growth suppression | Therapeutic effect compared with cyclophosphamide (80 mg/kg, Q2D×5) ([14]; parallel study): superior therapeutic effects than cyclophosphamide

CC(C)COC(=O)Nc1cc(COC(=O)Nc2ccc(N(CCCl)CCCl)cc2)cc(Nc2c3ccccc3nc3ccccc23)c1 [BO-1244]
IC50 ([7]; Table 1, SRB, 72-hr incubation): 300 nM | IC50 ([8]; Table 1, XTT, 72-hr incubation): 190 nM | IC50 ([2]; Table 1, SRB, 72-hr incubation): 1130 nM | IC50 ([3]; Table 1, XTT, 72-hr incubation): 650 nM

CN(C)CC(=O)Nc1cccc(NC(=O)Nc2ccc(N(CCCl)CCCl)cc2)c1 (as salt: hydrochloride) [BO-2189, N-(3-(3-(4-(bis(2-chloroethyl)amino)phenyl)ureido)phenyl)-2-(dimethyl-amino)acetamide]
melting point: 62 to 64 °C
